Measured values from PubChem BioAssay AID2060606 (Molecular Pharmacology Branch, DTP, NCI, 2025).

System: 922993-354-T-J3-PDC complex spheroids, viability, % test/control
Test: Anticancer human tumor 922993-354-T-J3-PDC patient-derived endometrial carcinoma cell line growth inhibition [CLK]
Details: for IC50: curve of first compound; for viability, T/C: stronger effect = lower value
Summary of the method: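 Patient-derived tumor cells grown as complex spheroids with HUVEC endothelial cells and mesenchymal stem cells, treated with drug combinations. Concentrations descend in half-log steps from near clinical Cmax, or from 10 microM if Cmax unknown.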

[1] = second compound 0.0316 µM, first compound 0.00949 µM
[2] = second compound 0.0316 µM, first compound 0.03 µM
[3] = second compound 0.0316 µM, first compound 0.0949 µM
[4] = second compound 0.0316 µM, first compound 0.3 µM
[5] = second compound 0.1 µM, first compound 0.00949 µM
[6] = second compound 0.1 µM, first compound 0.03 µM
[7] = second compound 0.1 µM, first compound 0.0949 µM
[8] = second compound 0.1 µM, first compound 0.3 µM
[9] = second compound 0.316 µM, first compound 0.00949 µM
[10] = second compound 0.316 µM, first compound 0.03 µM
[11] = second compound 0.316 µM, first compound 0.0949 µM
[12] = second compound 0.316 µM, first compound 0.3 µM
[13] = second compound 1 µM, first compound 0.00949 µM
[14] = second compound 1 µM, first compound 0.03 µM
[15] = second compound 1 µM, first compound 0.0949 µM
[16] = second compound 1 µM, first compound 0.3 µM
[17] = second compound 3.16 µM, first compound 0.00949 µM
[18] = second compound 3.16 µM, first compound 0.03 µM
[19] = second compound 3.16 µM, first compound 0.0949 µM
[20] = second compound 3.16 µM, first compound 0.3 µM
[21] = second compound 10 µM, first compound 0.00949 µM
[22] = second compound 10 µM, first compound 0.03 µM
[23] = second compound 10 µM, first compound 0.0949 µM
[24] = second compound 10 µM, first compound 0.3 µM
[25] = second compound 0.0316 µM, first compound 0.0316 µM
[26] = second compound 0.0316 µM, first compound 0.1 µM
[27] = second compound 0.0316 µM, first compound 0.316 µM
[28] = second compound 0.0316 µM, first compound 1 µM
[29] = second compound 0.0316 µM, first compound 3.16 µM
[30] = second compound 0.0316 µM, first compound 10 µM
[31] = second compound 0.1 µM, first compound 0.0316 µM
[32] = second compound 0.1 µM, first compound 0.1 µM
[33] = second compound 0.1 µM, first compound 0.316 µM
[34] = second compound 0.1 µM, first compound 1 µM
[35] = second compound 0.1 µM, first compound 3.16 µM
[36] = second compound 0.1 µM, first compound 10 µM
[37] = second compound 0.316 µM, first compound 0.0316 µM
[38] = second compound 0.316 µM, first compound 0.1 µM
[39] = second compound 0.316 µM, first compound 0.316 µM
[40] = second compound 0.316 µM, first compound 1 µM
[41] = second compound 0.316 µM, first compound 3.16 µM
[42] = second compound 0.316 µM, first compound 10 µM
[43] = second compound 1 µM, first compound 0.0316 µM
[44] = second compound 1 µM, first compound 0.1 µM
[45] = second compound 1 µM, first compound 0.316 µM
[46] = second compound 1 µM, first compound 1 µM
[47] = second compound 1 µM, first compound 3.16 µM
[48] = second compound 1 µM, first compound 10 µM
[49] = second compound 3.16 µM, first compound 0.0316 µM
[50] = second compound 3.16 µM, first compound 0.1 µM
[51] = second compound 3.16 µM, first compound 0.316 µM
[52] = second compound 3.16 µM, first compound 1 µM
[53] = second compound 3.16 µM, first compound 3.16 µM
[54] = second compound 3.16 µM, first compound 10 µM
[55] = second compound 10 µM, first compound 0.0316 µM
[56] = second compound 10 µM, first compound 0.1 µM
[57] = second compound 10 µM, first compound 0.316 µM
[58] = second compound 10 µM, first compound 1 µM
[59] = second compound 10 µM, first compound 3.16 µM
[60] = second compound 10 µM, first compound 10 µM
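Further: spheroids exposed to the agents for 7 days before readout.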

## C=CC(=O)Nc1cc(Nc2nccc(-c3cn(C)c4ccccc34)n2)c(OC)cc1N(C)CCN(C)C + CN1CCN(c2cc(C(=O)Nc3cc4cc(-c5cnn(C)c5)ccc4cn3)ccn2)CC1
Second compound 0.0316 µM
  IC50: > 0.3 µM
Second compound 0.1 µM
  IC50: > 0.3 µM
Second compound 0.316 µM
  IC50: < 0.000949 µM
Second compound 1 µM
  IC50: < 0.000949 µM
Second compound 3.16 µM
  IC50: < 0.000949 µM
Second compound 10 µM
  IC50: < 0.000949 µM
Second compound 0.0316 µM, first compound 0.000949 µM
  viability, T/C: 98.9%
Second compound 0.0316 µM, first compound 0.003 µM
  viability, T/C: 98.4%
[1]
  viability, T/C: 101%
[2]
  viability, T/C: 108%
[3]
  viability, T/C: 97.4%
[4]
  viability, T/C: 73.1%
Second compound 0.1 µM, first compound 0.000949 µM
  viability, T/C: 96.7%
Second compound 0.1 µM, first compound 0.003 µM
  viability, T/C: 97.7%
[5]
  viability, T/C: 83.7%
[6]
  viability, T/C: 69%
[7]
  viability, T/C: 81%
[8]
  viability, T/C: 63.3%
Second compound 0.316 µM, first compound 0.000949 µM
  viability, T/C: 41.8%
Second compound 0.316 µM, first compound 0.003 µM
  viability, T/C: 45.5%
[9]
  viability, T/C: 44.2%
[10]
  viability, T/C: 22.8%
[11]
  viability, T/C: 31.7%
[12]
  viability, T/C: 27.8%
Second compound 1 µM, first compound 0.000949 µM
  viability, T/C: 0.12%
Second compound 1 µM, first compound 0.003 µM
  viability, T/C: 0.13%
[13]
  viability, T/C: 1.12%
[14]
  viability, T/C: 0.1%
[15]
  viability, T/C: 0.1%
[16]
  viability, T/C: 1.55%
Second compound 3.16 µM, first compound 0.000949 µM
  viability, T/C: 0.11%
Second compound 3.16 µM, first compound 0.003 µM
  viability, T/C: 0.14%
[17]
  viability, T/C: 0.14%
[18]
  viability, T/C: 0.7%
[19]
  viability, T/C: 0.13%
[20]
  viability, T/C: 1.62%
Second compound 10 µM, first compound 0.000949 µM
  viability, T/C: 0.15%
Second compound 10 µM, first compound 0.003 µM
  viability, T/C: 0.17%
[21]
  viability, T/C: 1.16%
[22]
  viability, T/C: 0.16%
[23]
  viability, T/C: 1.05%
[24]
  viability, T/C: 0.62%

## CC1(C)CCC(CN2CCN(c3ccc(C(=O)NS(=O)(=O)c4ccc(NCC5CCOCC5)c([N+](=O)[O-])c4)c(Oc4cnc5[nH]ccc5c4)c3)CC2)=C(c2ccc(Cl)cc2)C1 + CN1CCN(c2cc(C(=O)Nc3cc4cc(-c5cnn(C)c5)ccc4cn3)ccn2)CC1
Second compound 0.0316 µM
  IC50: 6.61 µM
Second compound 0.1 µM
  IC50: 5.42 µM
Second compound 0.316 µM
  IC50: < 0.0316 µM
Second compound 1 µM
  IC50: < 0.0316 µM
Second compound 3.16 µM
  IC50: < 0.0316 µM
Second compound 10 µM
  IC50: < 0.0316 µM
[25]
  viability, T/C: 109%
[26]
  viability, T/C: 109%
[27]
  viability, T/C: 97%
[28]
  viability, T/C: 105%
[29]
  viability, T/C: 112%
[30]
  viability, T/C: 18.2%
[31]
  viability, T/C: 97.1%
[32]
  viability, T/C: 90.4%
[33]
  viability, T/C: 79.8%
[34]
  viability, T/C: 97.7%
[35]
  viability, T/C: 87.1%
[36]
  viability, T/C: 7.76%
[37]
  viability, T/C: 40%
[38]
  viability, T/C: 38%
[39]
  viability, T/C: 39.8%
[40]
  viability, T/C: 32.5%
[41]
  viability, T/C: 29.9%
[42]
  viability, T/C: 1.44%
[43]
  viability, T/C: 0.16%
[44]
  viability, T/C: 0.69%
[45]
  viability, T/C: 0.19%
[46]
  viability, T/C: 0.86%
[47]
  viability, T/C: 1.06%
[48]
  viability, T/C: 0.1%
[49]
  viability, T/C: 0.36%
[50]
  viability, T/C: 0.14%
[51]
  viability, T/C: 0.14%
[52]
  viability, T/C: 0.11%
[53]
  viability, T/C: 2.58%
[54]
  viability, T/C: 1.27%
[55]
  viability, T/C: 0.15%
[56]
  viability, T/C: 0.14%
[57]
  viability, T/C: 1.91%
[58]
  viability, T/C: 0.13%
[59]
  viability, T/C: 0.16%
[60]
  viability, T/C: 2.48%

## NC(=O)C(=Cn1cnc(-c2cc(C(F)(F)F)cc(C(F)(F)F)c2)n1)c1cncnc1 + CN1CCN(c2cc(C(=O)Nc3cc4cc(-c5cnn(C)c5)ccc4cn3)ccn2)CC1
Second compound 0.0316 µM
  IC50: 0.229 µM
Second compound 0.1 µM
  IC50: 0.173 µM
Second compound 0.316 µM
  IC50: < 0.00949 µM
Second compound 1 µM
  IC50: < 0.00949 µM
Second compound 3.16 µM
  IC50: < 0.00949 µM
Second compound 10 µM
  IC50: < 0.00949 µM
[1]
  viability, T/C: 119%
[2]
  viability, T/C: 115%
[3]
  viability, T/C: 82.1%
[4]
  viability, T/C: 40.1%
Second compound 0.0316 µM, first compound 0.949 µM
  viability, T/C: 30.6%
Second compound 0.0316 µM, first compound 3 µM
  viability, T/C: 41.2%
[5]
  viability, T/C: 118%
[6]
  viability, T/C: 118%
[7]
  viability, T/C: 80.7%
[8]
  viability, T/C: 21.7%
Second compound 0.1 µM, first compound 0.949 µM
  viability, T/C: 21.5%
Second compound 0.1 µM, first compound 3 µM
  viability, T/C: 20%
[9]
  viability, T/C: 48.8%
[10]
  viability, T/C: 32.3%
[11]
  viability, T/C: 4.78%
[12]
  viability, T/C: 1.32%
Second compound 0.316 µM, first compound 0.949 µM
  viability, T/C: 0.16%
Second compound 0.316 µM, first compound 3 µM
  viability, T/C: 1.43%
[13]
  viability, T/C: 0.11%
[14]
  viability, T/C: 0.75%
[15]
  viability, T/C: 0.12%
[16]
  viability, T/C: 0.07%
Second compound 1 µM, first compound 0.949 µM
  viability, T/C: 0.71%
Second compound 1 µM, first compound 3 µM
  viability, T/C: 2.13%
[17]
  viability, T/C: 0.1%
[18]
  viability, T/C: 0.13%
[19]
  viability, T/C: 0.17%
[20]
  viability, T/C: 1.63%
Second compound 3.16 µM, first compound 0.949 µM
  viability, T/C: 1.45%
Second compound 3.16 µM, first compound 3 µM
  viability, T/C: 2.46%
[21]
  viability, T/C: 0.14%
[22]
  viability, T/C: 0.16%
[23]
  viability, T/C: 1.88%
[24]
  viability, T/C: 0.19%
Second compound 10 µM, first compound 0.949 µM
  viability, T/C: 0.8%
Second compound 10 µM, first compound 3 µM
  viability, T/C: 2.01%

## Nc1ccccc1NC(=O)c1ccc(CNC(=O)OCc2cccnc2)cc1 + CN1CCN(c2cc(C(=O)Nc3cc4cc(-c5cnn(C)c5)ccc4cn3)ccn2)CC1
Second compound 0.0316 µM
  IC50: > 10 µM
Second compound 0.1 µM
  IC50: 4.69 µM
Second compound 0.316 µM
  IC50: < 0.0316 µM
Second compound 1 µM
  IC50: < 0.0316 µM
Second compound 3.16 µM
  IC50: < 0.0316 µM
Second compound 10 µM
  IC50: < 0.0316 µM
[25]
  viability, T/C: 111%
[26]
  viability, T/C: 114%
[27]
  viability, T/C: 103%
[28]
  viability, T/C: 90.3%
[29]
  viability, T/C: 62%
[30]
  viability, T/C: 51.9%
[31]
  viability, T/C: 103%
[32]
  viability, T/C: 97.2%
[33]
  viability, T/C: 83.8%
[34]
  viability, T/C: 60.1%
[35]
  viability, T/C: 59.6%
[36]
  viability, T/C: 41.7%
[37]
  viability, T/C: 39.8%
[38]
  viability, T/C: 29.3%
[39]
  viability, T/C: 31.7%
[40]
  viability, T/C: 33%
[41]
  viability, T/C: 6.16%
[42]
  viability, T/C: 1.51%
[43]
  viability, T/C: 0.15%
[44]
  viability, T/C: 1.32%
[45]
  viability, T/C: 0.79%
[46]
  viability, T/C: 0.09%
[47]
  viability, T/C: 0.26%
[48]
  viability, T/C: 1.83%
[49]
  viability, T/C: 0.61%
[50]
  viability, T/C: 0.12%
[51]
  viability, T/C: 1.29%
[52]
  viability, T/C: 0.65%
[53]
  viability, T/C: 1.19%
[54]
  viability, T/C: 1.23%
[55]
  viability, T/C: 0.11%
[56]
  viability, T/C: 0.14%
[57]
  viability, T/C: 2.33%
[58]
  viability, T/C: 0.14%
[59]
  viability, T/C: 2.41%
[60]
  viability, T/C: 2.96%
